Assays:
SHV-5 = molecular target: T1, SHV-5 (Klebsiella pneumoniae, UniProt P0A3M1); experiment: β-lactamase enzyme inhibition assay, SHV-5 (cefotaxime substrate); type: biochemical
T1 construct: made in house; host or cells: E. coli BL21(DE3)
Procedure, shortened: (§1)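 Native untagged β-lactamases were expressed in E. coli BL21(DE3), then purified by cation exchange and gel filtration. Enzyme was preincubated with inhibitor for 15 min at 37 °C before substrate was added. Imipenem (A300) served KPC-2 and cefotaxime (A260) served SHV-5. IC50 was taken from initial hydrolysis rates relative to no-inhibitor controls.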

KPC-2 = molecular target: T2, KPC-2 (Klebsiella pneumoniae, UniProt Q9F663); experiment: β-lactamase enzyme inhibition assay, KPC-2 (imipenem substrate); type: biochemical; conditions: Class A; imipenem substrate, 300 nm; read-out: KPC-2
T2 construct: made in house; host or cells: E. coli BL21(DE3)
T2 sequence (Q9F663 25-293, looked up): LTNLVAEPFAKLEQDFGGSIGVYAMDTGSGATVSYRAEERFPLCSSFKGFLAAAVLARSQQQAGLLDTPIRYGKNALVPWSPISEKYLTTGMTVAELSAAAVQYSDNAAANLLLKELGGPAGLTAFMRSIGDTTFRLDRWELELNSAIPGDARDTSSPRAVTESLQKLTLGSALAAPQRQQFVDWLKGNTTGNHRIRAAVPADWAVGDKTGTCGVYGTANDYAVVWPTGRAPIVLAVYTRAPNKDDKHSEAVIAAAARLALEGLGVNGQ
Procedure, shortened: as §1

VIM-2 = molecular target: T3, VIM-2 (Escherichia coli, UniProt Q5U7L7); experiment: β-lactamase enzyme inhibition assay, VIM-2 (nitrocefin substrate); type: biochemical; conditions: Class B; nitrocefin substrate, 486 nm; read-out: VIM-2
T3 construct: made in house; host or cells: E. coli BL21(DE3)
Procedure, shortened: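 Nitrocefin hydrolysis, read at 486 nm over 10 min, served as the measure of VIM-2 activity. The enzyme had been incubated with compound for 15 min at 37 °C before 100 μM substrate was added, and IC50 values were fitted from percent inhibition of the initial rate.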

AmpC = molecular target: T4, AmpC (Enterobacter cloacae, UniProt P05364); experiment: β-lactamase enzyme inhibition assay, p99 AmpC (nitrocefin substrate); type: biochemical
T4 construct: made in house; host or cells: E. coli BL21(DE3)
T4 sequence (P05364 21-381): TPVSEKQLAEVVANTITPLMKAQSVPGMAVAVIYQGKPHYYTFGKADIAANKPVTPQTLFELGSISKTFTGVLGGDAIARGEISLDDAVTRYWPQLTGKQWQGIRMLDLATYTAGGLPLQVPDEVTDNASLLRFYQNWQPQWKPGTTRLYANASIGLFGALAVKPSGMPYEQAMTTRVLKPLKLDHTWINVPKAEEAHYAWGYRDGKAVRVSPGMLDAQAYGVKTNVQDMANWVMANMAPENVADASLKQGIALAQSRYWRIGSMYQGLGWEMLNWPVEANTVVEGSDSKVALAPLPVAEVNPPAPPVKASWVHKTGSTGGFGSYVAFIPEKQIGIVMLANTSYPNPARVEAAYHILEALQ
Procedure, shortened: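 Native untagged β-lactamases were expressed in E. coli BL21(DE3), then purified by cation exchange and gel filtration. Enzyme was preincubated with inhibitor for 15 min at 37 °C before substrate was added. IC50 was taken from initial hydrolysis rates relative to no-inhibitor controls.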

OXA-48 = OXA-48 (UniProt Q6XEC0); experiment: β-lactamase enzyme inhibition assay, Class D oxacillinase; type: biochemical; conditions: read-out: OXA-48
[1] = test system: E. coli expressing the Class A Extended Spectrum Beta-Lactamase (ESBL) CTX-M-15; experiment: Broth microdilution MIC assay with ceftazidime, E. coli CTX-M-15; type: cell-based; conditions: Fixed CAZ (ceftazidime) 4 μg/mL; E. coli ESBL4 CTX-M-15
Procedure, shortened: (§2)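 Visual MIC readout of the test compound after 16-20 hours at 37° C, measured in the presence of a constant 4 μg/ml β-lactam. Compound concentrations spanned 16 to 0.125 μg/mL in 2-fold steps in cation-adjusted Mueller Hinton broth.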

[2] = test system: E. cloacae expressing the Class C P99; experiment: Broth microdilution MIC assay with ceftazidime, E. cloacae P99; type: cell-based; conditions: Fixed CAZ (ceftazidime) 4 μg/mL; E. cl. 144200 p99 AmpC
Procedure, shortened: as §2

[3] = test system: K. pneumoniae expressing the Class A carbapenemase KPC-2; experiment: Broth microdilution MIC assay with meropenem, K. pneumoniae KPC-2; type: cell-based; conditions: Fixed Mero (meropenem) 4 μg/mL; K. p. 156319 KPC-3
Procedure, shortened: as §2

[4] = test system: P. aeruginosa expressing the Class B carbapenemase VIM-2; experiment: Broth microdilution MIC assay with meropenem, P. aeruginosa VIM-2; type: cell-based; conditions: Fixed Mero (meropenem) 4 μg/mL; P. aerug. 2775 VIM-2
Procedure, shortened: as §2

[5] = test system: K. pneumoniae expressing the class A carbapenemase KPC-2 and the class B carbapenemase VIM-4; experiment: Broth microdilution MIC assay with meropenem, K. pneumoniae KPC-2 and VIM-4; type: cell-based; conditions: Fixed Mero (meropenem) 4 μg/mL; K. p. A-1797 KPC-2 VIM-4
Procedure, shortened: as §2

[6] = test system: K. pneumoniae producing the Class D carbapenemase OXA-48; experiment: Broth microdilution MIC assay with meropenem, K. pneumoniae OXA-48; type: cell-based; conditions: Fixed Mero (meropenem) 4 μg/mL; K. p. 11978 OXA-48
Procedure, shortened: as §2

T1 sequence (P0A3M1 22-286): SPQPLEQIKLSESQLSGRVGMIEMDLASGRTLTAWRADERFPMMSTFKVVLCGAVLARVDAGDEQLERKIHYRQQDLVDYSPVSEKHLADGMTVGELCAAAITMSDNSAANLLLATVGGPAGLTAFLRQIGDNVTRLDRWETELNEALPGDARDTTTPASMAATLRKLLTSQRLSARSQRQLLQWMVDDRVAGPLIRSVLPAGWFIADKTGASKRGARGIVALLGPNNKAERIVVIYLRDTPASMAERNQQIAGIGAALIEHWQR

Work on `NCC(=O)NCc1cn(CC(=O)N[C@H]2Cc3cccc(C(=O)O)c3OB2O)nn1` [Example 76, (R)-3-(2-(4-((2-aminoacetamido)methyl)-1H-1,2,3-triazol-1-yl)acetamido)-2-hydroxy-3,4-dihydro-2H-benzo[e][1,2]oxaborinine-8-carboxylic acid] yielded an IC50 (SHV-5) of less than 100 nM, an IC50 (KPC-2) of 100 to 1000 nM and an IC50 (VIM-2) of less than 100 nM. For the same compound, the IC50 (AmpC) was less than 100 nM, the IC50 (OXA-48) was 100 to 1000 nM and the “MIC (μg/mL) of Exemplary Compounds in presence of fixed β-lactams: E. coli ESBL4 CTX-M-15” value (shortened to “MIC (μg/mL) … E. coli ESBL4 CTX-M-15”) [1] was “C (C represents an MIC of <1 μg/mL)”. The “MIC (μg/mL) of Exemplary Compounds in presence of fixed β-lactams: E. cl. 144200 p99 AmpC” value (from here on “MIC (μg/mL) … E. cl. 144200 p99 AmpC”) [2] was “C (C represents an MIC of <1 μg/mL)”, the “MIC (μg/mL) of Exemplary Compounds in presence of fixed β-lactams: K. p. 156319 KPC-3” value (“MIC (μg/mL) … K. p. 156319 KPC-3” for short) [3] was “C (C represents an MIC of <1 μg/mL)” and the “MIC (μg/mL) of Exemplary Compounds in presence of fixed β-lactams: P. aerug. 2775 VIM-2” value (“MIC (μg/mL) … P. aerug. 2775 VIM-2” for short) [4] was “C (C represents an MIC of <1 μg/mL)”. For the same compound, the “MIC (μg/mL) of Exemplary Compounds in presence of fixed β-lactams: K. p. A-1797 KPC-2 VIM-4” value (shortened to “MIC (μg/mL) … K. p. A-1797 KPC-2 VIM-4”) [5] was “B (B represents an MIC between 1 and 16 μg/mL inclusive)” and the “MIC (μg/mL) of Exemplary Compounds in presence of fixed β-lactams: K. p. 11978 OXA-48” value (“MIC (μg/mL) … K. p. 11978 OXA-48” below) [6] was “B (B represents an MIC between 1 and 16 μg/mL inclusive)”.
`NOCC(=O)NCc1cn(CC(=O)N[C@H]2Cc3cccc(C(=O)O)c3OB2O)nn1` [Example 77, (R)-3-(2-(4-((2-(aminooxy)acetamido)methyl)-1H-1,2,3-triazol-1-yl)acetamido)-2-hydroxy-3,4-dihydro-2H-benzo[e][1,2]oxaborinine-8-carboxylic acid] was tested, and the IC50 (SHV-5) was less than 100 nM, the IC50 (KPC-2) was less than 100 nM and the IC50 (VIM-2) was 100 to 1000 nM. The IC50 (AmpC) was less than 100 nM, the IC50 (OXA-48) was 100 to 1000 nM and the “MIC (μg/mL) … E. coli ESBL4 CTX-M-15” value [1] was “C (C represents an MIC of <1 μg/mL)”. For the same compound, the “MIC (μg/mL) … E. cl. 144200 p99 AmpC” value [2] was “C (C represents an MIC of <1 μg/mL)”, the “MIC (μg/mL) … K. p. 156319 KPC-3” value [3] was “C (C represents an MIC of <1 μg/mL)” and the “MIC (μg/mL) … P. aerug. 2775 VIM-2” value [4] was “C (C represents an MIC of <1 μg/mL)”. For the same compound, the “MIC (μg/mL) … K. p. A-1797 KPC-2 VIM-4” value [5] was “B (B represents an MIC between 1 and 16 μg/mL inclusive)” and the “MIC (μg/mL) … K. p. 11978 OXA-48” value [6] was “B (B represents an MIC between 1 and 16 μg/mL inclusive)”.
For `O=C(Cc1cn2ccsc2n1)N[C@H]1Cc2cccc(C(=O)O)c2OB1O` [Example 78, (R)-2-hydroxy-3-(2-(imidazo[2,1-b]thiazol-6-yl)acetamido)-3,4-dihydro-2H-benzo[e][1,2]oxaborinine-8-carboxylic acid], the IC50 (SHV-5) was less than 100 nM, the IC50 (KPC-2) was less than 100 nM and the IC50 (VIM-2) was 100 to 1000 nM. The IC50 (AmpC) was less than 100 nM, the IC50 (OXA-48) was less than 100 nM and the “MIC (μg/mL) … E. coli ESBL4 CTX-M-15” value [1] was “C (C represents an MIC of <1 μg/mL)”. The “MIC (μg/mL) … E. cl. 144200 p99 AmpC” value [2] was “C (C represents an MIC of <1 μg/mL)”, the “MIC (μg/mL) … K. p. 156319 KPC-3” value [3] was “B (B represents an MIC between 1 and 16 μg/mL inclusive)” and the “MIC (μg/mL) … P. aerug. 2775 VIM-2” value [4] was “B (B represents an MIC between 1 and 16 μg/mL inclusive)”. For the same compound, the “MIC (μg/mL) … K. p. A-1797 KPC-2 VIM-4” value [5] was “A (A represents an MIC>16 μg/mL)” and the “MIC (μg/mL) … K. p. 11978 OXA-48” value [6] was “B (B represents an MIC between 1 and 16 μg/mL inclusive)”.
`CNC(=O)c1cn(CC(=O)N[C@H]2Cc3cccc(C(=O)O)c3OB2O)nn1` [Example 79, (R)-2-hydroxy-3-(2-(4-(methylcarbamoyl)-1H-1,2,3-triazol-1-yl)acetamido)-3,4-dihydro-2H-benzo[e][1,2]oxaborinine-8-carboxylic acid] gave an IC50 (SHV-5) of less than 100 nM, an IC50 (KPC-2) of less than 100 nM and an IC50 (VIM-2) of 100 to 1000 nM. For the same compound, the IC50 (AmpC) was less than 100 nM, the IC50 (OXA-48) was 100 to 1000 nM and the “MIC (μg/mL) … E. coli ESBL4 CTX-M-15” value [1] was “C (C represents an MIC of <1 μg/mL)”. For the same compound, the “MIC (μg/mL) … E. cl. 144200 p99 AmpC” value [2] was “C (C represents an MIC of <1 μg/mL)”, the “MIC (μg/mL) … K. p. 156319 KPC-3” value [3] was “C (C represents an MIC of <1 μg/mL)” and the “MIC (μg/mL) … P. aerug. 2775 VIM-2” value [4] was “C (C represents an MIC of <1 μg/mL)”. The “MIC (μg/mL) … K. p. A-1797 KPC-2 VIM-4” value [5] was “B (B represents an MIC between 1 and 16 μg/mL inclusive)” and the “MIC (μg/mL) … K. p. 11978 OXA-48” value [6] was “C (C represents an MIC of <1 μg/mL)”.

— patent US11046716B2, “Beta-lactamase inhibitors” (priority 2015, dated 2021)
